From ChEMBL document CHEMBL4665653, “VU6005806/AZN-00016130, an advanced M positive allosteric modulator (PAM) profiled as a potential preclinical development candidate” (Bioorg Med Chem Lett, 2019)

What was measured:
[1] = target: T1, Muscarinic acetylcholine receptor M4 (Homo sapiens, UniProt P08173); assay: Positive allosteric modulation of human M4 receptor/Gqi5 in presence of EC20 acetylcholine by calcium mobilization assay; format: functional
T1 sequence (P08173 whole entry): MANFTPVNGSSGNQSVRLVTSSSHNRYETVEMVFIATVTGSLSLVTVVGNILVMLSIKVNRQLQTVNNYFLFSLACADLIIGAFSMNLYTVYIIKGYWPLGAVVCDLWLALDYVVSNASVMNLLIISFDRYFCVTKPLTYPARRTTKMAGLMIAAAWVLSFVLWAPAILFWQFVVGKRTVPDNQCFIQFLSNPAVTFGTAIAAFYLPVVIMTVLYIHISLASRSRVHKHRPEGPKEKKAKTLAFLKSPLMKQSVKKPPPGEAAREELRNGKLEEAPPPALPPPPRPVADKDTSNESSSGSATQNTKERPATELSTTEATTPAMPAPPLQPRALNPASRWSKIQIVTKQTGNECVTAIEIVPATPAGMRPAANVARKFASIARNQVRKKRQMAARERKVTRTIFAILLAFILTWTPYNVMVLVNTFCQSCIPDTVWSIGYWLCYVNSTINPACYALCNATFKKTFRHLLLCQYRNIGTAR

[2] = target: Muscarinic acetylcholine receptor M1 (Homo sapiens, UniProt P11229); assay: Positive allosteric modulation of human M1 receptor
[3] = Fraction unbound in rat brain; format: ADME, tissue-based
[4] = Brain to plasma permeability coefficient, Kp in Sprague-Dawley rat at 0.1 to 0.2 mg/kg, iv measured after 0.25 hrs; format: ADME, organism-based; settings: dose 0.1-0.2 mg/kg
[5] = species on record: Canis lupus familiaris; assay: Positive allosteric modulation of dog M4 receptor relative to acetylcholine
[6] = species on record: Macaca fascicularis; assay: Positive allosteric modulation of cynomolgus monkey M4 receptor relative to acetylcholine; settings: filed as positive allosteric modulator
[7] = Plasma clearance in dog; format: ADME, Canis lupus familiaris; settings: read-out: CL(app)
[8] = Volume of distribution at steady state in dog; format: ADME, Canis lupus familiaris; settings: in vivo, read-out: Vdss
[9] = Half life in cynomolgus monkey; format: ADME, Macaca fascicularis; settings: in vivo
[10] = Unbound brain-to-plasma concentration ratio in Sprague-Dawley rat at 0.1 to 0.2 mg/kg, iv measured after 1.5 hrs; format: ADME, organism-based; settings: dose 0.1-0.2 mg/kg, read-out: K(p,uu,brain)
[11] = Brain to plasma permeability coefficient, Kp in Sprague-Dawley rat at 0.1 to 0.2 mg/kg, iv measured after 1.5 hrs; format: ADME, organism-based; settings: dose 0.1-0.2 mg/kg
[12] = target: L-type calcium channel Cav1.2, benzothiazepine binding site (Rattus norvegicus, UniProt P22002); assay: Displacement of [3H]-Diltiazem from L-type calcium channel Cav1.2 benzothiazepine binding site in Wistar rat brain membrane assessed as residual binding level for radioligand at 10 uM incubated for 180 mins by radiometric scintillation analysis relative to control; format: cell membranes; settings: probe [3H]-Diltiazem, read-out: Activity
[13] = target: B1 bradykinin receptor (Homo sapiens) (UniProt P46663); assay: Displacement of [3H]desArg10-KD from human recombinant Bradykinin B1 receptor expressed in CHO-K1 cells assessed as residual binding level for radioligand at 10 uM incubated for 60 mins by radiometric scintillation analysis relative to control; format: cell-based
[14] = target: Alpha-1A adrenergic receptor (Homo sapiens) (UniProt P35348); assay: Displacement of [3H]-Prazosin from human adrenergic alpha 1A receptor expressed in Chem-1 cells assessed as residual binding level for radioligand at 10 uM incubated for 60 mins by radiometric scintillation analysis relative to control; format: cell-based
[15] = target: Adenosine receptor A3 (Homo sapiens) (UniProt P0DMS8); assay: Displacement of [125I]AB-MECA from recombinant full length human adenosine A3 receptor expressed in CHO-K1 cells assessed as residual binding level for radioligand at 10 uM after 60 mins by radiometric scintillation analysis relative to control; format: cell-based
[16] = target: D(4) dopamine receptor (Homo sapiens) (UniProt P21917); assay: Displacement of [3H]spiperone from full length recombinant human D4.4 receptor expressed in CHO cells assessed as residual binding level for radioligand at 10 uM incubated for 120 mins by radiometric scintillation analysis relative to control; format: cell-based
[17] = target: Endothelin receptor type B (Homo sapiens) (UniProt P24530); assay: Displacement of [125I]endothelin-1 from recombinant full length human recombinant ETB receptor expressed in CHO-K1 cells assessed as residual binding level for radioligand at 10 uM measured after 120 mins by radiometric scintillation analysis relative to control; format: cell-based
[18] = target: Epidermal growth factor receptor (Homo sapiens) (UniProt P00533); assay: Displacement of [125I]-EGF from human EGF receptor expressed in A-431 cells assessed as residual binding level for radioligand at 10 uM incubated for 60 mins by radiometric scintillation analysis relative to control; format: cell-based
[19] = target: Estrogen receptor (Homo sapiens) (UniProt P03372); assay: Displacement of [3H]estradiol from recombinant full length human recombinant ERalpha receptor expressed in Sf9 insect cells assessed as residual binding level for radioligand at 10 uM measured after 120 mins by radiometric scintillation analysis relative to contro
[20] = species on record: Rattus norvegicus; assay: Displacement of [3H]Muscimol from GABAA channel muscimol binding site in Wistar rat brain assessed as residual binding level for radioligand at 10 uM incubated for 10 mins by scintillation counting analysis relative to control; format: tissue-based
[21] = species on record: Rattus norvegicus; assay: Displacement of [3H]-Flunitrazepam from Wistar rat brain GABA(A)/BzR site assessed as residual binding level for radioligand at 10 uM measured after 60 mins by scintillation counting method relative to control; format: tissue-based
[22] = target: Glucocorticoid receptor (Homo sapiens) (UniProt P04150); assay: Displacement of [3H]Dexamethasone from recombinant full length human glucocorticoid receptor expressed in insect cells assessed as residual binding level for radioligand at 10 uM incubated for 1440 mins by scintillation counting analysis relative to control
[23] = target: Neuronal acetylcholine receptor; alpha3/beta4 (Homo sapiens) (UniProt P30926+P32297); assay: Displacement of [125I] epibatidine from human nicotinic acetylcholine receptor alpha3/beta4 assessed as residual binding level for radioligand at 10 uM incubated for 60 mins by scintillation counting analysis relative to control; format: protein-complex assay
[24] = target: Delta-type opioid receptor (Homo sapiens) (UniProt P41143); assay: Displacement of [3H]-Naltrindole from recombinant full length human delta opioid receptor expressed in HEK293 cells assessed as residual binding level for radioligand at 10 uM incubated for 60 mins by scintillation counting analysis relative to control; format: cell-based
[25] = target: Kappa-type opioid receptor (Homo sapiens) (UniProt P41145); assay: Displacement of [3H]-Diprenorphine from recombinant full length human kappa opioid receptor expressed in HEK293 cells assessed as residual binding level for radioligand at 10 uM incubated for 60 mins by scintillation counting analysis relative to control; format: cell-based
[26] = species on record: Mus musculus; assay: Displacement of [3H]-PDBu from phorbol ester receptor in ICR mouse brain assessed as residual binding level for radioligand at 10 uM incubated for 60 mins by scintillation counting analysis relative to control; format: tissue-based
[27] = target: 5-hydroxytryptamine receptor 3A (Homo sapiens) (UniProt P46098); assay: Displacement of [3H]GR-65630 from full length human recombinant 5HT3 receptor expressed in HEK293 cells assessed as residual binding level for radioligand at 10 uM measured after 60 mins by radiometric scintillation analysis relative to control; format: cell-based
[28] = Brain to plasma permeability coefficient, Kp in cynomolgus monkey; format: ADME, Macaca fascicularis

Muscarinic acetylcholine receptor M1, sequence (P11229 whole entry): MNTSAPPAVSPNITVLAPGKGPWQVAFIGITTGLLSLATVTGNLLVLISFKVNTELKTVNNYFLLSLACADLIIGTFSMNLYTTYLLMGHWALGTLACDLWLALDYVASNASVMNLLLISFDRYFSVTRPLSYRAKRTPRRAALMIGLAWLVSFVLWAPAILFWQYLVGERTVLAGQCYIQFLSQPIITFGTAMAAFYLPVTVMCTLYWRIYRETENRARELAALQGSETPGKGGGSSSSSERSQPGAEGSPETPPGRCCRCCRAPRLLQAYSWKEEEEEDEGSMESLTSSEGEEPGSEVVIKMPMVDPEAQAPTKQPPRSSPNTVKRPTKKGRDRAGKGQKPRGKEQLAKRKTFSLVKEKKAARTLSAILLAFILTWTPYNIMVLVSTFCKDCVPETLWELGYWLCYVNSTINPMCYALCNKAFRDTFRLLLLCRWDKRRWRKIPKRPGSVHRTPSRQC
Epidermal growth factor receptor (Homo sapiens), sequence (P00533 whole entry): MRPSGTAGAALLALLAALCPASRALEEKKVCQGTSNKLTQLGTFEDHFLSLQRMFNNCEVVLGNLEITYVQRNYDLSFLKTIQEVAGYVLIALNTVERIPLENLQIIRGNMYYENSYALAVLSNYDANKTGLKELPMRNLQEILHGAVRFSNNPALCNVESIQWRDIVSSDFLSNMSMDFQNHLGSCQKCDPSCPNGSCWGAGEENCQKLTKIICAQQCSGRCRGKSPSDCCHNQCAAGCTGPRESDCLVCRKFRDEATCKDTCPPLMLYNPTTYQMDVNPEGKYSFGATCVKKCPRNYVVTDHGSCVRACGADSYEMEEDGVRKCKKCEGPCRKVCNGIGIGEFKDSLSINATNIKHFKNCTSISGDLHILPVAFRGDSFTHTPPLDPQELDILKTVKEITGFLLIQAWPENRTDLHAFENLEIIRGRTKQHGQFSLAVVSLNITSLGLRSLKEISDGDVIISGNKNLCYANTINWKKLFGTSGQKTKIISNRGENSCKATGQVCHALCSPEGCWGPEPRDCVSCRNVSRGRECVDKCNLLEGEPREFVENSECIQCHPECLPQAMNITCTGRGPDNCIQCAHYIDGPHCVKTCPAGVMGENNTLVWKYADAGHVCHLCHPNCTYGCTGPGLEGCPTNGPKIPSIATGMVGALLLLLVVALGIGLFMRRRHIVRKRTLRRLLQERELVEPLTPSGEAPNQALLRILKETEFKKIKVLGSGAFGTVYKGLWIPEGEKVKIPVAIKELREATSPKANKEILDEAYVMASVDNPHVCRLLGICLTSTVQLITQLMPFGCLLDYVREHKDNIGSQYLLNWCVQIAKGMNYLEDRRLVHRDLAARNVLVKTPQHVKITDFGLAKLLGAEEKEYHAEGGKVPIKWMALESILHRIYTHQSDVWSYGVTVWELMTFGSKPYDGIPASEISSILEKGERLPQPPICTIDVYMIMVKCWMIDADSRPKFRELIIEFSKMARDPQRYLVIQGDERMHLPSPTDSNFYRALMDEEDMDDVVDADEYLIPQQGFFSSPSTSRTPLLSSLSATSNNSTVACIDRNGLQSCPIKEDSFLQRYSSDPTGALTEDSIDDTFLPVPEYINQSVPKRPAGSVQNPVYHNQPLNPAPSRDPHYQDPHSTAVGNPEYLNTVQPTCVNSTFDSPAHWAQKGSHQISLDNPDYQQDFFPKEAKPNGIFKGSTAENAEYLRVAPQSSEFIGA
Delta-type opioid receptor (Homo sapiens), sequence (P41143 whole entry): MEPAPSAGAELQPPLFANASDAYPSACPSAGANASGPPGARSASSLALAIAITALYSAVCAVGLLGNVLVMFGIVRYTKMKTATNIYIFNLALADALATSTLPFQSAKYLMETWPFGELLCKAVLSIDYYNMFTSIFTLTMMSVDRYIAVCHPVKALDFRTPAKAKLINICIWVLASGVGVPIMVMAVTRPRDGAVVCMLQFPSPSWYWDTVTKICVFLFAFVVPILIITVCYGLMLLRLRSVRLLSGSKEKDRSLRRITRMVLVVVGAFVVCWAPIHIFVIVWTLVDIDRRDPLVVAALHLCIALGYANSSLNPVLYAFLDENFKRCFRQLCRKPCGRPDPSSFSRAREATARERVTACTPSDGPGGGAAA
Alpha-1A adrenergic receptor (Homo sapiens), sequence (P35348 whole entry): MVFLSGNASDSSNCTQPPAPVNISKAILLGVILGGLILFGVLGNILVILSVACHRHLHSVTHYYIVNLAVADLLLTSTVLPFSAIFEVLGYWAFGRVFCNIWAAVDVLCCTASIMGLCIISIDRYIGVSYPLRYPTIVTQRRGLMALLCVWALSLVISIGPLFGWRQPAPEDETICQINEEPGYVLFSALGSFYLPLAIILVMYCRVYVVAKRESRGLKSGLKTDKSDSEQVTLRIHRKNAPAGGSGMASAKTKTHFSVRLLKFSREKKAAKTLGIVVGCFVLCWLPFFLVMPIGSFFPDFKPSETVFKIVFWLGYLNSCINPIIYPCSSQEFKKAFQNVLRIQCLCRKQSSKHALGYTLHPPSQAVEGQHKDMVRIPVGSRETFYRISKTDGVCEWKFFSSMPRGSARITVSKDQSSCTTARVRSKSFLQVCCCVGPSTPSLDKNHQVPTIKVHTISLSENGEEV
D(4) dopamine receptor (Homo sapiens), sequence (P21917 whole entry): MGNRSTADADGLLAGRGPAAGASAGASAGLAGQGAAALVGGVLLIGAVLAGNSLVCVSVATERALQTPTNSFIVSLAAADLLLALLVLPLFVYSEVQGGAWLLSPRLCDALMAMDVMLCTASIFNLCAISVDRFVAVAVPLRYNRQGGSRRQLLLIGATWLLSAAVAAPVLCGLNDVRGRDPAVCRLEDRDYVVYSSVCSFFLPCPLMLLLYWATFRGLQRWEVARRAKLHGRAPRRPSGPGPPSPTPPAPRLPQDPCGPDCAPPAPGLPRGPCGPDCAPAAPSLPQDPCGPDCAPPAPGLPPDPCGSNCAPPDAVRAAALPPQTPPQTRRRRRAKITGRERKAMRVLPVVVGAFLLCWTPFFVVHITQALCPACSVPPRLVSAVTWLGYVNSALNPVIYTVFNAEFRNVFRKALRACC
B1 bradykinin receptor (Homo sapiens), sequence (P46663 whole entry): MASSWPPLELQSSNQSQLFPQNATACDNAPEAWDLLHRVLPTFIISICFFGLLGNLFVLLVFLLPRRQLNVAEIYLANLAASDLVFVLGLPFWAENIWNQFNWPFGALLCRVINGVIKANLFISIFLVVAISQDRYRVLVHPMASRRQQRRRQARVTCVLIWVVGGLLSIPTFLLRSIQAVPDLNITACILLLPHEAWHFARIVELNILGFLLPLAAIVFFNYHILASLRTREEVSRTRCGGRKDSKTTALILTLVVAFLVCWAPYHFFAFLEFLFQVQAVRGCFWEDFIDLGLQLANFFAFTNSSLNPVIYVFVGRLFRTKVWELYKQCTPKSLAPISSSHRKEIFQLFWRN
Estrogen receptor (Homo sapiens), sequence (P03372 whole entry): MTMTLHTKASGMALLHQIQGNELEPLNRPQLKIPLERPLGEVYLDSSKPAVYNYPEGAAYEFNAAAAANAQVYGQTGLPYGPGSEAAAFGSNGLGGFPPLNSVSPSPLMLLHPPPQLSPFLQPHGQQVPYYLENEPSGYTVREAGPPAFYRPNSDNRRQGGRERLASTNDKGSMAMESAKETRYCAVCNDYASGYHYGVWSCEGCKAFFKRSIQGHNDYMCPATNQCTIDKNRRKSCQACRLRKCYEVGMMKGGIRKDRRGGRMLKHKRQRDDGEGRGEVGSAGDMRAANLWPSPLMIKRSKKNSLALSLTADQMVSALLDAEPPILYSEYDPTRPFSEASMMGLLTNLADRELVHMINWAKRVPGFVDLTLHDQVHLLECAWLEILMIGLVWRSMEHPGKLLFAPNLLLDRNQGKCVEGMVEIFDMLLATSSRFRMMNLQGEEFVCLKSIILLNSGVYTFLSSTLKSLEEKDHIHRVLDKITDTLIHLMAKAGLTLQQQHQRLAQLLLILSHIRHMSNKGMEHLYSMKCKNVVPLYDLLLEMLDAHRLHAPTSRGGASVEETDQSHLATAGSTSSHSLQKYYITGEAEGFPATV
Kappa-type opioid receptor (Homo sapiens), sequence (P41145 whole entry): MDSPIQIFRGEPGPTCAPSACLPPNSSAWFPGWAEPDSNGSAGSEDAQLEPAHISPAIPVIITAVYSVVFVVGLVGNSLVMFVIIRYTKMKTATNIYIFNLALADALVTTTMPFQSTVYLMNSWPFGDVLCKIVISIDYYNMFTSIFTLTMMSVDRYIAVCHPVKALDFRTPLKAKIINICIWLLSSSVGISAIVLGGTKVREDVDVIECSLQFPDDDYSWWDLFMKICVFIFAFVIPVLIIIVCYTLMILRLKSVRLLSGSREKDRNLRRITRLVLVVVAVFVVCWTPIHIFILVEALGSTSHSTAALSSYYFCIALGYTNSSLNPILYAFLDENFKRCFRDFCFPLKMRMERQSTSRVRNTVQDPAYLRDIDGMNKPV
Endothelin receptor type B (Homo sapiens), sequence (P24530 whole entry): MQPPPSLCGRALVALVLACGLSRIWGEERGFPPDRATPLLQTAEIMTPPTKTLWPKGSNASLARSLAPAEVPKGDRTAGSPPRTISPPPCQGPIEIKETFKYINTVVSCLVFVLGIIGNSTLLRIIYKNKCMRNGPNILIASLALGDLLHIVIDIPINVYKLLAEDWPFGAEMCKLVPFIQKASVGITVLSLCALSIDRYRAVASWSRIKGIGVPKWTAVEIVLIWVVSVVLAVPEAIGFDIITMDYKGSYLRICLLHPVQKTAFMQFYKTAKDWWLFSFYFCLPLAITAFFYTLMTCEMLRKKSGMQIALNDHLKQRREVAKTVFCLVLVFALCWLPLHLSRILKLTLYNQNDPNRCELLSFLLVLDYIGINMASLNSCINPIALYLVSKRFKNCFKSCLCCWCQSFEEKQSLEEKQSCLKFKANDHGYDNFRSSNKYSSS

**Q.** Which EC50 [1] does the source give for `COc1nnc2sc(C(=O)NC3CN(c4ncc(C(F)(F)F)cn4)C3)c(N)c2c1C` here?
**A.** 90 nM

**Q.** And the EC50 [2]?
**A.** > 30000 nM

**Q.** What about the fraction unbound [3] of the same compound?
**A.** 0.039

**Q.** What about the Kp at 0.25 h [4] of the same compound?
**A.** 0.34

**Q.** And the %max [5]?
**A.** 37%

**Q.** And the %max [6]?
**A.** 57%

**Q.** And the clearance [7]?
**A.** 5.9 mL/min/kg

**Q.** What about the Vd [8] of the same compound?
**A.** 0.57 L/kg

**Q.** And the half-life [9]?
**A.** 1.3 h

**Q.** What about the Kp uu at 1.5 h [10] of the same compound?
**A.** 0.35

**Q.** And the Kp at 1.5 h [11]?
**A.** 0.16

**Q.** What about the activity at 3 h, 10 µM [12] of the same compound?
**A.** > 50%

**Q.** What about the Activity [13] of the same compound?
**A.** > 50%

**Q.** What about the Activity [14] of the same compound?
**A.** > 50%

**Q.** And the Activity [15]?
**A.** > 50%

**Q.** And the Activity [16]?
**A.** > 50%

**Q.** What about the Activity [17] of the same compound?
**A.** > 50%

**Q.** And the Activity [18]?
**A.** > 50%

**Q.** And the Activity [19]?
**A.** > 50%

**Q.** What about the Activity [20] of the same compound?
**A.** > 50%

**Q.** What about the Activity [21] of the same compound?
**A.** > 50%

**Q.** And the Activity [22]?
**A.** > 50%

**Q.** And the Activity [23]?
**A.** > 50%

**Q.** What about the Activity [24] of the same compound?
**A.** > 50%

**Q.** What about the Activity [25] of the same compound?
**A.** > 50%

**Q.** What about the Activity [26] of the same compound?
**A.** > 50%

**Q.** What about the Activity [27] of the same compound?
**A.** > 50%

**Q.** What about the Kp [28] of the same compound?
**A.** 1.7
